Laboratory results: patent US7605173B2, “Pharmaceutical liquid composition containing pyridone derivative” (KDL, Inc., priority 2002, dated 2009)

Assays:
[1] = cited from earlier work
[2] = Dissolving Pirfenidone in diethylene glycol monoethyl ether (attainable concentration); type: physicochemical; details: solvent diethylene glycol monoethyl ether
Method: That is, the diethylene glycol monoethyl ether was charged to a suitable container and warmed to 60° C. The Pirfenidone was added while stirring and a yellowish solution was obtained by continuing the stirring until the mixture was transparent. All the remaining ingredients as listed in Table 1 were dissolved in water at 60° C. and this solution was poured into the above Pirfenidone solution and the stirring was continued until mixed uniformly. The so obtained solution was protected from the light.
That is, the diethylene glycol monoethyl ether was charged to a suitable container and warmed to 60° C., and the Pirfenidone was added while stirring and a yellowish solution was obtained by continuing the stirring until the whole became transparent. Furthermore, the α-tocopherol was added and water was added while stirring until mixed uniformly. Then, the hydroxypropyl cellulose was added because of its necessity and stirred until a homogenous dispersion was formed. Furthermore, the dispersion was allowed to stand overnight until the particles of hydroxypropyl cellulose, the concentrating agent, were expanded, and finally the product was homogenized. The so obtained dispersion was allowed to stand overnight and a solution in the desired concentration was obtained. The solution was homogenized again and protected from light.

concentration of Pirfenidone that can be dissolved [2]: ~25 % by weight
Compound: Cc1ccc(=O)n(-c2ccccc2)c1 [Pirfenidone, 5-methyl-1-phenyl-2-(1H)-pyridone]
solubility in water [1]: slightly soluble in water
